Experimental data as given in US11512079B2, “Heterocycle substituted pyridine derivative antifungal agents” (Amplyx Pharmaceuticals, Inc., priority 2017, dated 2022).
Values after ≈ are worked out from the molar mass of the structure shown.

What was measured:
Assay type in all cases: cell-based
[1] = test system: Aspergillus fumigatus MYA3626; experiment: In vitro antifungal assay (Example IX), microdilution broth, MEC; conditions: minimum effective concentration (shortening of hyphae), 35° C., 40-48 h, RPMI1640
Procedure, shortened: (§1)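 Spore suspensions of A. fumigatus and R. pusillus adjusted to 1-2×10^4 spores/mL in RPMI1640 and exposed to compound dilutions prepared in DMSO, by broth microdilution. MEC taken as the lowest concentration shortening hyphae versus DMSO control wells, read as for echinocandins.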

[2] = test system: Rhizomucor pusillus 46342; experiment: as above; conditions: minimum effective concentration (shortening of hyphae), 35° C., 40-48 h, RPMI1640
Procedure, shortened: as §1

Candida albicans 90028 = experiment: In vitro antifungal assay (Example IX), microdilution broth, MIC; conditions: minimum inhibitory concentration (≥50% inhibition), 35° C., 40-48 h, RPMI1640
Procedure, shortened: (§2)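 CLSI broth microdilution in RPMI1640 with 2.5×10^3 cells/mL and final compound concentrations of 2-0.0019 μg/mL (1% DMSO). C. albicans 90028 plates were incubated at 35° C. for 40-48 h and C. neoformans H99 for 72 h. MIC was read as minimum inhibitory concentration, verified at 600 nm.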

[3] = test system: Cryptococcus neoformans H99; experiment: as above; conditions: minimum inhibitory concentration (≥50% inhibition), 35° C., 72 h, RPMI1640
Procedure, shortened: as §2

Cryptococcus gattii = experiment: as above; conditions: minimum inhibitory concentration (≥50% inhibition), 35° C., 72 h (Cryptococcus), RPMI1640
Procedure, shortened: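 Broth microdilution in RPMI1640 with 2.5×10^3 cells/mL inoculum; final compound concentrations were 2–0.0019 μg/mL, with 1% DMSO. Cryptococcus plates were incubated at 35 °C for 72 h, and growth was read at 600 nm to give the MIC.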

Row | Compound | minimal effective concentration [1] [µg/mL] | minimal effective concentration [2] [µg/mL] | MIC (Candida albicans 90028) [µg/mL] | MIC [3] [µg/mL] | MIC (Cryptococcus gattii) [µg/mL]
1 | Nc1ncccc1-c1cc(Cc2ccc(/C=C/C3CCCCC3)cc2)no1 [compound 99, (E)-3-(3-(4-(2-cyclohexylvinyl)benzyl)isoxazol-5-yl)pyridin-2-amine] | 0.1 to 1 | > 1 | > 1 | 0.1 to 1 (≈ 0.278 to 2.78 µM) | 0.1 to 1 (≈ 0.278 to 2.78 µM)
2 | Nc1ncccc1-c1cc(Cc2ccc(CCC3CCCCC3)cc2)no1 [compound 100, 3-(3-(4-(2-cyclohexylethyl)benzyl)isoxazol-5-yl)pyridin-2-amine] | 0.1 to 1 | > 1 | 0.1 to 1 (≈ 0.277 to 2.77 µM) | 0.1 to 1 (≈ 0.277 to 2.77 µM) | 0.1 to 1 (≈ 0.277 to 2.77 µM)
3 | Nc1ncccc1-c1cnn(Cc2ccc(OCc3ccccc3)nc2)c1 [compound 101, 3-(1-((6-(benzyloxy)pyridin-3-yl)methyl)-1H-pyrazol-4-yl)pyridin-2-amine] | 0.1 to 1 | > 1 | 0.1 to 1 (≈ 0.28 to 2.8 µM) | 0.01 to 0.1 (≈ 0.028 to 0.28 µM) | 0.01 to 0.1 (≈ 0.028 to 0.28 µM)
4 | Nc1ncccc1-c1cc(Cc2ccc(COc3cccnc3)cc2)no1 [compound 105, 3-(3-(4-((pyridin-3-yloxy)methyl)benzyl)isoxazol-5-yl)pyridin-2-amine] | 0.1 to 1 | > 1 | 0.01 to 0.1 (≈ 0.0279 to 0.279 µM) | 0.1 to 1 (≈ 0.279 to 2.79 µM) | 0.01 to 0.1 (≈ 0.0279 to 0.279 µM)
5 | Nc1ncccc1-c1cc(Cc2ccc(CNc3ccccc3F)cc2)no1 [compound 106, 3-(3-(4-(((2-fluorophenyl)amino)methyl)benzyl)isoxazol-5-yl)pyridin-2-amine] | 0.01 to 0.1 | 0.1 to 1 | 0.01 to 0.1 (≈ 0.0267 to 0.267 µM) | 0.1 to 1 (≈ 0.267 to 2.67 µM) | 0.01 to 0.1 (≈ 0.0267 to 0.267 µM)
6 | Nc1ncccc1-c1cc(Cc2ccc(CNc3cccc(F)c3)cc2)no1 [compound 107, 3-(3-(4-(((3-fluorophenyl)amino)methyl)benzyl)isoxazol-5-yl)pyridin-2-amine] | 0.01 to 0.1 | 0.01 to 0.1 | 0.01 to 0.1 (≈ 0.0267 to 0.267 µM) | 0.01 to 0.1 (≈ 0.0267 to 0.267 µM) | 0.01 to 0.1 (≈ 0.0267 to 0.267 µM)
7 | Nc1ncccc1-c1cc(Cc2ccc(CNc3cccc(F)c3F)cc2)no1 [compound 108, 3-(3-(4-(((2,3-difluorophenyl)amino)methyl)benzyl)isoxazol-5-yl)pyridin-2-amine] | 0.01 to 0.1 | 0.1 to 1 | 0.01 to 0.1 (≈ 0.0255 to 0.255 µM) | 0.1 to 1 (≈ 0.255 to 2.55 µM) | 0.1 to 1 (≈ 0.255 to 2.55 µM)
8 | Nc1ncccc1-c1cc(Cc2ccc(Oc3ccccn3)cc2)no1 [compound 110, 3-(3-(4-(pyridin-2-yloxy)benzyl)isoxazol-5-yl)pyridin-2-amine] | 0.01 to 0.1 | 0.1 to 1 | 0.01 to 0.1 (≈ 0.029 to 0.29 µM) | 0.01 to 0.1 (≈ 0.029 to 0.29 µM) | ≤ 0.01
9 | Nc1ncccc1-c1cc(Cc2ccc(OCc3nccs3)cc2)no1 [compound 112, 3-(3-(4-(thiazol-2-ylmethoxy)benzyl)isoxazol-5-yl)pyridin-2-amine] | 0.01 to 0.1 | 0.1 to 1 | 0.1 to 1 (≈ 0.274 to 2.74 µM) | 0.01 to 0.1 (≈ 0.0274 to 0.274 µM) | 0.01 to 0.1 (≈ 0.0274 to 0.274 µM)
10 | Cc1cncc(COc2ccc(Cc3cc(-c4cccnc4N)on3)cc2)c1 [compound 114, 3-(3-(4-((5-methylpyridin-3-yl)methoxy)benzyl)isoxazol-5-yl)pyridin-2-amine] | 0.01 to 0.1 | > 1 | 0.1 to 1 (≈ 0.269 to 2.69 µM) | 0.1 to 1 (≈ 0.269 to 2.69 µM) | 0.1 to 1 (≈ 0.269 to 2.69 µM)
11 | Nc1ncccc1-c1cc(Cc2ccc(OCc3cncc(F)c3)cc2)no1 [compound 115, 3-(3-(4-((5-fluoropyridin-3-yl)methoxy)benzyl)isoxazol-5-yl)pyridin-2-amine] | 0.01 to 0.1 | > 1 | 0.1 to 1 (≈ 0.266 to 2.66 µM) | 0.1 to 1 (≈ 0.266 to 2.66 µM) | 0.1 to 1 (≈ 0.266 to 2.66 µM)
12 | Nc1ncccc1-c1cc(Cc2ccc(OCc3ccnc(Cl)c3)cc2)no1 [compound 117, 3-(3-(4-((2-chloropyridin-4-yl)methoxy)benzyl)isoxazol-5-yl)pyridin-2-amine] | 0.01 to 0.1 | > 1 | 0.1 to 1 (≈ 0.255 to 2.55 µM) | 0.01 to 0.1 (≈ 0.0255 to 0.255 µM) | ≤ 0.01
13 | N#Cc1cccc(COc2ccc(Cc3cc(-c4cccnc4N)on3)cc2)n1 [compound 118, 6-((4-((5-(2-aminopyridin-3-yl)isoxazol-3-yl)methyl)phenoxy)methyl)picolinonitrile] | 0.1 to 1 | > 1 | 0.1 to 1 (≈ 0.261 to 2.61 µM) | 0.1 to 1 (≈ 0.261 to 2.61 µM) | 0.1 to 1 (≈ 0.261 to 2.61 µM)
14 | Nc1ncccc1-c1cc(Cc2ccc(Cc3ccoc3)cc2)no1 [compound 120, 3-(3-(4-(furan-3-ylmethyl)benzyl)isoxazol-5-yl)pyridin-2-amine] | ≤ 0.01 | 0.1 to 1 | 0.01 to 0.1 (≈ 0.0302 to 0.302 µM) | 0.01 to 0.1 (≈ 0.0302 to 0.302 µM) | 0.01 to 0.1 (≈ 0.0302 to 0.302 µM)
15 | Nc1ncccc1-c1cc(Cc2ccc(Cc3ccco3)cc2)no1 [compound 121, 3-(3-(4-(furan-2-ylmethyl)benzyl)isoxazol-5-yl)pyridin-2-amine] | ≤ 0.01 | 0.01 to 0.1 | 0.01 to 0.1 (≈ 0.0302 to 0.302 µM) | 0.01 to 0.1 (≈ 0.0302 to 0.302 µM) | 0.01 to 0.1 (≈ 0.0302 to 0.302 µM)
16 | Cc1ccc(Cc2ccc(Cc3cc(-c4cccnc4N)on3)cc2)o1 [compound 122, 3-(3-(4-((5-methylfuran-2-yl)methyl)benzyl)isoxazol-5-yl)pyridin-2-amine] | ≤ 0.01 | 0.01 to 0.1 | ≤ 0.01 | 0.01 to 0.1 (≈ 0.029 to 0.29 µM) | 0.01 to 0.1 (≈ 0.029 to 0.29 µM)
17 | Nc1ncccc1-c1cc(Cc2ccc(CC3=CCOC3)cc2)no1 [compound 123, 3-(3-(4-((2,5-dihydrofuran-3-yl)methyl)benzyl)isoxazol-5-yl)pyridin-2-amine] | 0.01 to 0.1 | > 1 | 0.01 to 0.1 (≈ 0.03 to 0.3 µM) | 0.1 to 1 (≈ 0.3 to 3 µM) | 0.01 to 0.1 (≈ 0.03 to 0.3 µM)
18 | Nc1ncccc1-c1cc(Cc2ccc(Cc3ccc(F)o3)cc2)no1 [compound 124, 3-(3-(4-((5-fluorofuran-2-yl)methyl)benzyl)isoxazol-5-yl)pyridin-2-amine] | 0.01 to 0.1 | 0.01 to 0.1 | 0.01 to 0.1 (≈ 0.0286 to 0.286 µM) | 0.01 to 0.1 (≈ 0.0286 to 0.286 µM) | 0.01 to 0.1 (≈ 0.0286 to 0.286 µM)
19 | Nc1ncccc1-c1cc(Cc2cnc(SCc3ccccc3)nc2)no1 [compound 125, 3-(3-((2-(benzylthio)pyrimidin-5-yl)methyl)isoxazol-5-yl)pyridin-2-amine] | 0.1 to 1 | > 1 | 0.1 to 1 (≈ 0.266 to 2.66 µM) | > 1 | > 1
20 | Nc1ncccc1-c1cc(Cc2ccc(OCc3ccccc3F)nc2)no1 [compound 127, 3-(3-((6-((2-fluorobenzyl)oxy)pyridin-3-yl)methyl)isoxazol-5-yl)pyridin-2-amine] | ≤ 0.01 | 0.1 to 1 | 0.01 to 0.1 (≈ 0.0266 to 0.266 µM) | 0.01 to 0.1 (≈ 0.0266 to 0.266 µM) | 0.01 to 0.1 (≈ 0.0266 to 0.266 µM)
21 | Nc1ncccc1-c1cc(Cc2ccc(Oc3cccc(F)c3)nc2)no1 [compound 130, 3-(3-((6-(3-fluorophenoxy)pyridin-3-yl)methyl)isoxazol-5-yl)pyridin-2-amine] | 0.01 to 0.1 | 0.1 to 1 | 0.01 to 0.1 (≈ 0.0276 to 0.276 µM) | ≤ 0.01 | 0.01 to 0.1 (≈ 0.0276 to 0.276 µM)
22 | Nc1ncccc1-c1cc(Cc2ccc(Oc3ccccc3F)nc2)no1 [compound 131, 3-(3-((6-(2-fluorophenoxy)pyridin-3-yl)methyl)isoxazol-5-yl)pyridin-2-amine] | 0.01 to 0.1 | 0.1 to 1 | 0.01 to 0.1 (≈ 0.0276 to 0.276 µM) | 0.01 to 0.1 (≈ 0.0276 to 0.276 µM) | 0.01 to 0.1 (≈ 0.0276 to 0.276 µM)
23 | Nc1ccc(-c2cc(Cc3ccc(OCc4ccccc4)cc3)no2)c(N)n1 [compound 132, 3-(3-(4-(benzyloxy)benzyl)isoxazol-5-yl)pyridine-2,6-diamine] | ≤ 0.01 | 0.1 to 1 | 0.01 to 0.1 (≈ 0.0269 to 0.269 µM) | 0.01 to 0.1 (≈ 0.0269 to 0.269 µM) | 0.01 to 0.1 (≈ 0.0269 to 0.269 µM)
24 | Nc1ccc(-c2cc(Cc3ccc(Oc4cccc(F)n4)cc3)no2)c(N)n1 [compound 134, 3-(3-(4-((6-fluoropyridin-2-yl)oxy)benzyl)isoxazol-5-yl)pyridine-2,6-diamine] | 0.1 to 1 | 0.1 to 1 | 0.1 to 1 (≈ 0.265 to 2.65 µM) | 0.01 to 0.1 (≈ 0.0265 to 0.265 µM) | 0.01 to 0.1 (≈ 0.0265 to 0.265 µM)
25 | CC(C)=CCOc1ccc(Cc2cc(-c3ccc(N)nc3N)on2)cc1 [compound 135, 3-(3-(4-((3-methylbut-2-en-1-yl)oxy)benzyl)isoxazol-5-yl)pyridine-2,6-diamine] | 0.01 to 0.1 | 0.1 to 1 | 0.1 to 1 (≈ 0.285 to 2.85 µM) | 0.01 to 0.1 (≈ 0.0285 to 0.285 µM) | 0.1 to 1 (≈ 0.285 to 2.85 µM)
26 | Nc1ccc(-c2cc(Cc3ccc(CNc4ccccc4)cc3)no2)c(N)n1 [compound 136, 3-(3-(4-((phenylamino)methyl)benzyl)isoxazol-5-yl)pyridine-2,6-diamine] | 0.01 to 0.1 | 0.01 to 0.1 | 0.1 to 1 (≈ 0.269 to 2.69 µM) | 0.1 to 1 (≈ 0.269 to 2.69 µM) | 0.1 to 1 (≈ 0.269 to 2.69 µM)
